Source: patent US11111249B2, “Heteroaryl-pyrazole derivative, and preparation method therefor and medical application thereof” (Jiangsu Hengrui Medicine Co., Ltd., priority 2017, dated 2021)

Target: T1, human TLR7 (Homo sapiens, UniProt Q9NYK1)
T1 construct: host or cells: HEK-Blue hTLR7 (HEK293-derived) stably transfected cells
T1 sequence (Q9NYK1 27-1049): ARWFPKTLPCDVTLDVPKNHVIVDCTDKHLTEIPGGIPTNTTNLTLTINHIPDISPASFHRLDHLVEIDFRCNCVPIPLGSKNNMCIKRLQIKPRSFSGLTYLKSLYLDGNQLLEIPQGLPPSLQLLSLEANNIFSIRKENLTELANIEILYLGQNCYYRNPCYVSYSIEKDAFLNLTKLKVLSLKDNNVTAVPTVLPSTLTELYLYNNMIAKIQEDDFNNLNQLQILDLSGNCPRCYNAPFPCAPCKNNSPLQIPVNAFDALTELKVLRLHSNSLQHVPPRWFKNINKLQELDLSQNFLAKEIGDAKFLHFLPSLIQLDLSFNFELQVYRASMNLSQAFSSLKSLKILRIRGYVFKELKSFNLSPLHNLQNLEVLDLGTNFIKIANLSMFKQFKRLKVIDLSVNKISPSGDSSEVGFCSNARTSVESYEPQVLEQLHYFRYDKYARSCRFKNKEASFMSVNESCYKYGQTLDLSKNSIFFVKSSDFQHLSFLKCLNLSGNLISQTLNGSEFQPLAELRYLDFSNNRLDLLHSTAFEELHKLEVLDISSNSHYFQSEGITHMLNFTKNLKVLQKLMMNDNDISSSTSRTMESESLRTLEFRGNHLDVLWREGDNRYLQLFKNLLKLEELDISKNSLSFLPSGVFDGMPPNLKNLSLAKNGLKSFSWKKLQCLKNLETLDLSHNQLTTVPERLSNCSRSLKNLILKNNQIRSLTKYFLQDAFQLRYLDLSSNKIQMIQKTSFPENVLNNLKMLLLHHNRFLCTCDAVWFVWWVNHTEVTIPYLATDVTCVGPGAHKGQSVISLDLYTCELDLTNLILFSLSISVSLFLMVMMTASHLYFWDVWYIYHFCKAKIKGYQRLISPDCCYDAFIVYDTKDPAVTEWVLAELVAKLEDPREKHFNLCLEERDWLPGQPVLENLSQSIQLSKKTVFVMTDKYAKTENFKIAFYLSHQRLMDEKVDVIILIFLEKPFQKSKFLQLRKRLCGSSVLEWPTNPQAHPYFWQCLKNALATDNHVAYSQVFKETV
Assay: Activation of hTLR7 in HEK-Blue hTLR7 stably transfected cells
Type: cell-based
Conditions: OD 620 nm, 6-16 hours
Description: The activation effect of the compound of the present application on the hTLR7 protein expressed in HEK-Blue™ hTLR7 stably transfected cells and hTLR8 protein expressed in HEK-Blue™ hTLR8 stably transfected cells were determined by the following experimental method:
The HEK-Blue assay medium was configured, HEK-Blue test dry powder was taken and 50 mL deendotoxin water were added to dissolve, then the resulting mixture was placed into the 37° C. incubator, and then filtered aseptically 10 minutes later. […]
The above-prepared compound was diluted 20-fold with a medium, and then 20 μL of the diluted compound were added to each well. HEK-Blue™ hTLR7 cells and HEK-Blue™ hTLR8 cells were taken separately, and the supernatant was removed first, then 2-5 mL pre-warmed PBS was added, placed in an incubator for 1-2 minutes, and the cells were gently pipetted, stained with trypan blue and counted. […]
The microplate reader reads at a wavelength of 620 nm. The corresponding OD value was obtained, and the EC50 value of the drug was calculated by Graphpad Prism. The activation effect of the compound of the present application and the control compound (prepared by the method of embodiment 21 of WO2016023511) on human TLR7 and TLR8 were determined by the above test, and the measured EC50 values were as shown in Table 1.

Compound	EC50 [nM]
CCCCOc1nc(N)c2[nH]nc(Cc3ccc(CN4CCCC4)cc3)c2n1 [Embodiment 1, 5-Butoxy-3-(4-(pyrrolidin-1-ylmethyl)benzyl)-1H-pyrazolo[4,3-d]pyrimidin-7-amine]	53
CCCCOc1nc(N)c2[nH]cc(Cc3ccc(CN4CCCC4)cc3)c2n1 [Embodiment 21 of WO2016023511]	243
